Where two headings read alike, the source gives them in different places.
What was measured:
[1] = tested on: T. b. brucei Lister 427 bloodstream forms; experiment: In vitro activity against T. brucei (HTS SYBR Green I growth inhibition assay); assay type: cell-based, Trypanosoma brucei brucei; settings: for % Antiparasitic Activity Tb brucei at 50uM: Table S1, compounds I-X; for EC50 / inhibition at 50 µM: Trypanosoma brucei; for inhibition at 50 µM: standard deviation within ±10% of the value, read-out: % Inhibition T. brucei at 50 μM
TbPTR1 [2] = target: T1, TbPTR1 (Trypanosoma brucei brucei, UniProt O76290); experiment: TbPTR1 direct enzyme inhibition assay for compounds I-X (Table S1); assay type: biochemical; settings: for inhibition at 50 µM: 10 min, pH 6, 50 µM compound; for Ki: competitive inhibition mechanism assumed
T1 construct: made in house
T1 sequence (O76290 1-268): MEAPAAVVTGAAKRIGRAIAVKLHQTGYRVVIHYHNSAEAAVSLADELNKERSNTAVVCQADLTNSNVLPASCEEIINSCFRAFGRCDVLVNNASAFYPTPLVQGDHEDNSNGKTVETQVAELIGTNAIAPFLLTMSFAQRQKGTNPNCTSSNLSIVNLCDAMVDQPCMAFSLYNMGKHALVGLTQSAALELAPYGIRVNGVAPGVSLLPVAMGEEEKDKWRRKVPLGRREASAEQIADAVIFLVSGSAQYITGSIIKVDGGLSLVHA
Procedure: (b) PTR1 Enzyme inhibition. Compounds ICX were tested following the direct assay. The samples were incubated for
10 minutes at 30 °C, in buffer containing 50 mM Na citrate pH 3.7, TbPTR1, BH2 20 μM. (Dawson et al. Mol.
Microbiol. 2006, 61 (6), 1457–1468). Reaction start with NADPH. Compound concentrations depend on solubility and
ranged between 10C300 μM. Ki was calculated assuming a competitive inhibition mechanism.

mammalian cells = experiment: Toxicity against mammalian cells (Table S1); assay type: cell-based; settings: read-out: IC50 vs mam.cells
TbPTR1 [3] = target: T1, TbPTR1; experiment: biochemical; settings: for inhibition at 50 µM: 50 μM compound, read-out: % Inhibition TbPTR1 at 50 μM; for IC50: dose-response 0.001-100 μM
[4] = tested on: T. b. brucei Lister 427 bloodstream forms; experiment: T. brucei resazurin assay for MTX potentiation and folic acid supplementation; assay type: cell-based, Trypanosoma brucei brucei; settings: for EC50: Trypanosoma brucei
Procedure: T. b. brucei Lister 427 bloodstream forms were grown at 37 °C and 5% CO2 in a complete HMI-9 medium, supplemented with 10% FCS and 100 UI/mL of penicillin/streptomycin. The cultures were diluted until a cell density of 2 × 10^6/mL was reached. The efficacy of compounds against T. brucei bloodstream forms was evaluated using a modified resazurin-based assay previously described.[46] The compounds were prepared from a stock solution in 10 mM DMSO and diluted in HMI-9 (supplemented or not with 1 mM folic acid, Sigma-Aldrich) to 40 μM work solution (0.4% DMSO, with the DMSO limit in the assay being 0.4%). […] The 40 μM work solution was then used to perform serial dilutions (1:2) in a 96-well plate. Upon compound addition to the test plate, the mid-log bloodstream forms were added (100 μL) in complete HMI-9 medium (supplemented or not with 1 mM folic acid) at a final cell density of 1 × 10^4/mL in a final well volume of 200 μL with a maximum DMSO concentration of 0.2%. Following incubation for 72 h at 37 °C and 5% CO2, 20 μL of 0.5 mM resazurin solution was added, and the plates were incubated further for 4 h under the same conditions. Fluorescence was measured at 540 and 620 nm excitation and emission wavelengths, respectively, using a Synergy 2 multi-mode reader (BioTek). […] This approach requires the use of both compounds at their EC50 potency in the combination, which is impossible to be detected for compound 4m having no intrinsic antiparasitic activity as a single agent at the tested concentrations. Folic acid (1 mM) was chosen on the basis of the following experiments. The stock solution of 10 mM folic acid dissolved in NaOH solution was used to perform a dose–response curve with folic acid alone to evaluate the maximum amount we could use without compromising parasite growth due to pH modification of the media. […] The IC50 values reported are the averages of the results obtained in at least two independent experiments. Pentamidine was used as the reference drug and internal control in all assays.

hERG = target: T2, hERG (Homo sapiens, UniProt Q12809); set-up: hERG inhibition liability assay
T2 construct: gene KCNH2
T2 sequence (Q12809 whole entry): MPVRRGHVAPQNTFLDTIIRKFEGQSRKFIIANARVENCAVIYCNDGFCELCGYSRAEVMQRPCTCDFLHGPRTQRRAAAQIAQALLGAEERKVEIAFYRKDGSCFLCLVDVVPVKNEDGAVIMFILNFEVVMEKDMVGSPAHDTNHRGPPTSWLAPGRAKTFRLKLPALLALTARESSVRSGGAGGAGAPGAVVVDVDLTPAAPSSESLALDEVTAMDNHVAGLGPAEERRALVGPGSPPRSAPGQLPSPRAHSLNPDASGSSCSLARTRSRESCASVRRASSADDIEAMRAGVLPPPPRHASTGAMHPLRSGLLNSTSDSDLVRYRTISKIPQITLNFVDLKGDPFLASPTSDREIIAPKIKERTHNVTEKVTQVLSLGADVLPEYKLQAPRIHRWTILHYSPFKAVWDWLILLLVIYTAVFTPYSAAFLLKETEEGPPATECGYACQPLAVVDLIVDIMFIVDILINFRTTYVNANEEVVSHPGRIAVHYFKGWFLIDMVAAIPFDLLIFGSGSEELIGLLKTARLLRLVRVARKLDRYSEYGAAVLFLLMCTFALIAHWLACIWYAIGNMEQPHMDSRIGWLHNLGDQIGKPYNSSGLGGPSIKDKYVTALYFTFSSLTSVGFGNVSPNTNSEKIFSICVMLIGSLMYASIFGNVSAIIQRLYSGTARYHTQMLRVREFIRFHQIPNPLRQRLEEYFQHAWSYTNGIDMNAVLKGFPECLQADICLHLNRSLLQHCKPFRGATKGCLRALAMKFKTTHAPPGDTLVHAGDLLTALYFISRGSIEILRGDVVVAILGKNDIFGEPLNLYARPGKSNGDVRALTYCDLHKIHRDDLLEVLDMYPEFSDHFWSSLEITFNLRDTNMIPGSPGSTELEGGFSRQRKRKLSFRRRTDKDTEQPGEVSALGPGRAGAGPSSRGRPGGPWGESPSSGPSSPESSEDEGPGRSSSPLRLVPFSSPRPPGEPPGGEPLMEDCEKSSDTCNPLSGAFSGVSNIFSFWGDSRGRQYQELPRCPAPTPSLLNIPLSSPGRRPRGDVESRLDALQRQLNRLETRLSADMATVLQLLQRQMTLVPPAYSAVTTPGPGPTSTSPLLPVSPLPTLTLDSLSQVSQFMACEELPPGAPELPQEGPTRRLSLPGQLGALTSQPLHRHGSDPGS

CYP1A2 = target: T3, CYP1A2 (Homo sapiens, UniProt P05177); experiment: in vitro; set-up: cytochrome P450 isoform inhibition liability assay
T3 sequence (P05177 1-516): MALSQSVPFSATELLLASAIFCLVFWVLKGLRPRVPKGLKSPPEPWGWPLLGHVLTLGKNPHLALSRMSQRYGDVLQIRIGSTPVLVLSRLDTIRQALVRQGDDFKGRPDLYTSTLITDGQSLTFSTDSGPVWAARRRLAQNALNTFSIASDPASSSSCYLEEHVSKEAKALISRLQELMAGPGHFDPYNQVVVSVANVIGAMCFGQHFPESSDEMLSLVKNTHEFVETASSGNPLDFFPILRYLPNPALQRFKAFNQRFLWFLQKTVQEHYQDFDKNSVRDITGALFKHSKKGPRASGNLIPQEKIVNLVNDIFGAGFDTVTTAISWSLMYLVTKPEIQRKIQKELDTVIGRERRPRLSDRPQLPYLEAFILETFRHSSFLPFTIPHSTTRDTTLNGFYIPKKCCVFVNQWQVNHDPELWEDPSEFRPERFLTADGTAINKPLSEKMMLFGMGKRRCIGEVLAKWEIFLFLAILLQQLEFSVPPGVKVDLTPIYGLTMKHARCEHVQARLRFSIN

CYP2C19 = CYP2C19 (Homo sapiens, UniProt P33261); experiment: in vitro; set-up: cytochrome P450 isoform inhibition liability assay
CYP2C19, sequence (P33261 whole entry, canonical isoform): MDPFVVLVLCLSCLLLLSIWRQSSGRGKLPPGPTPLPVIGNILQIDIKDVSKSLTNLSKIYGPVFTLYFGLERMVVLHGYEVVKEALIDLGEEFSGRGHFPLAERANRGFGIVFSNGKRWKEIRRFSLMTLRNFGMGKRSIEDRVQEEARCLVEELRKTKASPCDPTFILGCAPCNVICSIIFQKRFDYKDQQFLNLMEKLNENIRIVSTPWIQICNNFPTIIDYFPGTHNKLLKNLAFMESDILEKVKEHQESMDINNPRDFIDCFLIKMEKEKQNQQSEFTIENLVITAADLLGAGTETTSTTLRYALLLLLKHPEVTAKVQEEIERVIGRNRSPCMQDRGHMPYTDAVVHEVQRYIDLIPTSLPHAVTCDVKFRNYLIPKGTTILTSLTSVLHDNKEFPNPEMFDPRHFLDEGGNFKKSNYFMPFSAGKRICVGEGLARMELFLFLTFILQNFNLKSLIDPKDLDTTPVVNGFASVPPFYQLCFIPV

CYP2C9 = CYP2C9 (Homo sapiens, UniProt P11712); experiment: in vitro; set-up: cytochrome P450 isoform inhibition liability assay
CYP2C9, sequence (P11712 whole entry, canonical isoform): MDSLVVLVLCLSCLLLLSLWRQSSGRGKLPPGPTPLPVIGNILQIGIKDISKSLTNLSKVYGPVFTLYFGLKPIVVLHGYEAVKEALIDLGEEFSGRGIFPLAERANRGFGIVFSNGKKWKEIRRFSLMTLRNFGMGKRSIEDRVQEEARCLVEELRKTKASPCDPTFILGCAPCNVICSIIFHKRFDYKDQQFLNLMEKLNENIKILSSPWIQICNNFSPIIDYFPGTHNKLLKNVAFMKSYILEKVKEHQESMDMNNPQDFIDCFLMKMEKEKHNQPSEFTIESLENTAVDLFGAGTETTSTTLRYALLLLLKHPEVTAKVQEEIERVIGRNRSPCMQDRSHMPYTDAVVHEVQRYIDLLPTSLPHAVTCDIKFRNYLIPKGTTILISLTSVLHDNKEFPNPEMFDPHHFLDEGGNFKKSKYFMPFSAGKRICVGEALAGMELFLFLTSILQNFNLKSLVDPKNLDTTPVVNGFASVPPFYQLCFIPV

CYP2D6 = CYP2D6 (Homo sapiens, UniProt P10635); experiment: in vitro; set-up: cytochrome P450 isoform inhibition liability assay
CYP2D6, sequence (P10635 whole entry, canonical isoform): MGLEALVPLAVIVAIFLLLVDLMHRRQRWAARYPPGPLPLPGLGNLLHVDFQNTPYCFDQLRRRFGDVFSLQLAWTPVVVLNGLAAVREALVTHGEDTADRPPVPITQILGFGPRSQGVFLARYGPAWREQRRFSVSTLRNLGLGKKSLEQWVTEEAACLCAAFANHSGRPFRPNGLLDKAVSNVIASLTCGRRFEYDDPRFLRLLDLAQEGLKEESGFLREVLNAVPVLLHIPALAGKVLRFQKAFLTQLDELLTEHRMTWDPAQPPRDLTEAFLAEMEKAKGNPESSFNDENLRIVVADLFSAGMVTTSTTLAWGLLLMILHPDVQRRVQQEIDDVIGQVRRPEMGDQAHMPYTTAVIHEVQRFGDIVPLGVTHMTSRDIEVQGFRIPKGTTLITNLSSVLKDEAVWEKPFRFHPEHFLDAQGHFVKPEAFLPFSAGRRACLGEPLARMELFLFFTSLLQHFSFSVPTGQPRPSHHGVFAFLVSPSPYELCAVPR

CYP3A4 = CYP3A4 (Homo sapiens, UniProt P08684); experiment: in vitro; set-up: cytochrome P450 isoform inhibition liability assay
CYP3A4, sequence (P08684 whole entry, canonical isoform): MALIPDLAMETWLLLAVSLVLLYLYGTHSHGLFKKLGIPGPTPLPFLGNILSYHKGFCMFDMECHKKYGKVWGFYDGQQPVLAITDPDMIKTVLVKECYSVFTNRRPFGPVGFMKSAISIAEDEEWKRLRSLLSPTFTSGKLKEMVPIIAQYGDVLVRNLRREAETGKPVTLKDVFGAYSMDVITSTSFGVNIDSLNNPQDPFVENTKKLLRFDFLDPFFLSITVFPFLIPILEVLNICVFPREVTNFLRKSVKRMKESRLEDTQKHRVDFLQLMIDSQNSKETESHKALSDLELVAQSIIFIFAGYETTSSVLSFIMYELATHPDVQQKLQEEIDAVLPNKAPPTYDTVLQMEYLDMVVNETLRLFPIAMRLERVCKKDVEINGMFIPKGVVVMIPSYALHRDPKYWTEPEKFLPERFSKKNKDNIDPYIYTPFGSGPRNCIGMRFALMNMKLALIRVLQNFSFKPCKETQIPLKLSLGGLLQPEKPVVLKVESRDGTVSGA

786-O = experiment: cells; set-up: mitochondrial toxicity in 786-O renal carcinoma cells; settings: Homo sapiens, 786-0; mitochondrial toxicity
in vitro [5] = experiment: in vitro; set-up: cytotoxicity, per cent cell growth of A549 cells; settings: human, a549 cells; read-out: % cell growth A549 at 10uM
in vitro [6] = experiment: in vitro; set-up: cytotoxicity, per cent cell growth of WI-38 fibroblasts; settings: human, wi-38 cells; read-out: % cell growth W1-38 at 10uM
[7] = tested on: T. b. brucei Lister 427 bloodstream forms; set-up: method as in PMID 27175479, PMID 27703008, PMID 18557814; settings: no folate supplementation; read-out: reported EC50 T. brucei with no folate supplementation; cited from earlier work

With Nc1nnc(-c2ccc3[nH]nnc3c2)s1 [IV] the “% Antiparasitic Activity Tb brucei at 50uM” value [1] was 67%, the EC50 ([1]; Table S1, read-out: EC50 T. b. brucei (compounds I-IV)) was 170 µM and the inhibition at 50 µM (TbPTR1 [2]) was 10%. The Ki (TbPTR1 [2]) was 88 µM and the IC50 (mammalian cells) was 51.5 µM.
Molecule Nc1nnc(NCc2cccs2)s1 [4c] has an inhibition at 50 µM (TbPTR1 [3]) of 50.6 ± 2.6%, an IC50 (TbPTR1 [3]) of 112 µM and an inhibition at 50 µM [1] of less than 0%. The “antiparasitic effect as single agent” value ([4]; compound alone, 4m at 50 μM) was “low T. brucei cell inhibitory activity”, the inhibition at 10 µM (hERG) was 87.3 ± 5.7% and the inhibition at 10 µM (CYP1A2) was -3.2 ± 2.9%. It also gave an inhibition at 10 µM (CYP2C19) of -13.9 ± 18%, an inhibition at 10 µM (CYP2C9) of -7.7 ± 4.7% and an inhibition at 10 µM (CYP2D6) of 27.4 ± 5.7%. For the same molecule, the inhibition at 10 µM (CYP3A4) was -2.6 ± 4.5%, the inhibition at 10 µM (786-O) was 4.8 ± 2.9% and the viability at 10 µM (in vitro [5]) was 142 ± 13.8%. For the same molecule, the viability at 10 µM (in vitro [6]) was 96.3 ± 7.6%.
In the case of CN(Cc1cnc2nc(N)nc(N)c2n1)c1ccc(C(=O)N[C@@H](CCC(=O)O)C(=O)O)cc1 [MTX, methotrexate, reference compound], the “effect of 1 mM folic acid on T. b. brucei growth inhibition” value ([4]; 1 mM folic acid, MTX alone or equimolar 4m + MTX) is listed as “reduce the antiparasitic activity”, the EC50 ([4]; media supplemented with 9 μM folic acid, read-out: EC50 T. brucei, single agent) is listed as 35 ± 3 µM and the EC50 [7] is listed as 0.012 µM.
Nc1nnc(CCC(=O)c2cccs2)s1 [3k] gave an inhibition at 50 µM (TbPTR1 [3]) of 26 ± 0.7%, an IC50 (TbPTR1 [3]) greater than 70 µM and an inhibition at 50 µM [1] of 60.7%. It also gave an inhibition at 50 µM (TbPTR1 [2]) of 18%, a Ki (TbPTR1 [2]) of 48 µM and an IC50 (mammalian cells) greater than 50 µM. It also gave an inhibition at 10 µM (hERG) of 0.1 ± 6.4%, an inhibition at 10 µM (CYP1A2) of 4.9 ± 1.4% and an inhibition at 10 µM (CYP2C19) of -3.4 ± 15.5%. It also gave an inhibition at 10 µM (CYP2C9) of -10.5 ± 2.1%, an inhibition at 10 µM (CYP2D6) of -20.6 ± 3.1% and an inhibition at 10 µM (CYP3A4) of 10.3 ± 7.8%. The inhibition at 10 µM (786-O) was -5.2 ± 3.9%, the viability at 10 µM (in vitro [5]) was 131 ± 2.8% and the viability at 10 µM (in vitro [6]) was 92 ± 9.7%.
N=C(N)c1ccc(OCCCCCOc2ccc(C(=N)N)cc2)cc1 [Pentamidine, reference compound] gave an EC50 ([1]; read-out: EC50 T. b. brucei (reference compound, SYBR Green assay)) of 0.0038 ± 0.00048 µM and an EC50 ([4]; read-out: average EC50 T. brucei (reference drug, resazurin assay)) of 0.00228 ± 0.00118 µM.
For Nc1nnc(-c2cnccc2N)s1 [III], the “EC50 T. b. brucei (compounds I-IV)” value ([1]; Table S1) was “not detectable”, the inhibition at 50 µM (TbPTR1 [2]) was 15% and the Ki (TbPTR1 [2]) was 53 µM. For the same molecule, the IC50 (mammalian cells) was greater than 50 µM.
In the case of Nc1nnc(CCCl)s1 [I], the “% Antiparasitic Activity Tb brucei at 50uM” value [1] is reported as 90% and the IC50 (mammalian cells) is reported as 4.2 ± 0.4 µM.

From PMC5623949, “Exploiting the 2-Amino-1,3,4-thiadiazole Scaffold To Inhibit Trypanosoma brucei Pteridine Reductase in Support of Early-Stage Drug Discovery” (ACS Omega, 2017)
